Starred links: 1 amine or outer side, 2 acyl side, 3 side chain; linkers in the order of their positions; H or OH if unused. Positions of bridges follow the written chain, without caps; N, C: chain ends. Non-standard residues stand in square brackets, D forms with d. Residues, ends and D or L forms follow the SMILES beside them. Groups on a side chain read outwards from the residue. *: point of attachment. Me3N+(CH2)2O(CH2)2O(CH2)2CO = C[N+](C)(C)CCOCCOCCC(=O)*; CH2CH2OCH2CH2OCH2CH2NMe3+ = C[N+](C)(C)CCOCCOCC*; Trp(7-Me) = Cc1cccc2c(C[C@H](N)C(=O)O)c[nH]c12; d(hLys(Me3)) = C[N+](C)(C)CCCCC[C@@H](N)C(=O)O; CH2CH2OCH2CH2NMe3+ = C[N+](C)(C)CCOCC*; γGlu = O=C(O)[C@H](CCC(=O)[*:2])N[*:1]; 2Nal = N[C@@H](Cc1ccc2ccccc2c1)C(=O)O; 3Pal = N[C@@H](Cc1cccnc1)C(=O)O; Myristoyl = CCCCCCCCCCCCCC(=O)*; Lys(Me) = CNCCCC[C@H](N)C(=O)O; NMeK = CN[C@@H](CCCCN)C(=O)O; Pen = CC(C)(S)[C@H](N)C(=O)O; Lauroyl = CCCCCCCCCCCC(=O)*; Thp = NC1(C(=O)O)CCOCC1; X3 = C[N+](C)(C)CCCCC*; AEEA = NCCOCCOCC(=O)O; Sar = CNCC(=O)O
Assay: Exposed Polar Surface Area (EPSA)
Format: physicochemical
Details: SFC on Chirex 3014 column; sample 1 mM DMSO stock; read-out: EPSA
In short: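 Chirex 3014 column, 35 °C, 4 mL/min; CO2/MeOH + 20 mM NH4 formate, 5→60% modifier at 20%/min. UV/MS detection. EPSA (Å^2) from retention time vs 8-standard calibration line; duplicates; 1 mM DMSO stock injected undiluted.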

SMILES: CCCCCCCCCCCCCC(=O)N[C@@H](CCC(=O)NCCOCCOCC(=O)NCCOCCOCC(=O)NCCCC[C@H](NC(=O)C1(NC(=O)[C@H](Cc2ccc3ccccc3c2)NC(=O)[C@H](Cc2ccc(OCCCCC[N+](C)(C)C)cc2)NC(=O)[C@H]2NC(=O)[C@H](CCCCNC(C)=O)NC(=O)[C@H](Cc3c[nH]c4c(C)cccc34)NC(=O)[C@H]([C@@H](C)O)NC(=O)[C@H](CC(=O)N(C)C)NC(=O)[C@@H](NC(=O)CCOCCOCC[N+](C)(C)C)C(C)(C)SSC2(C)C)CCOCC1)C(=O)N[C@@H](CC(N)=O)C(=O)N[C@@H](Cc1cccnc1)C(=O)N(C)[C@@H](CCCCNC(=O)COCCOCCNC(=O)COCCOCCNC(=O)CC[C@H](NC(=O)CCCCCCCCCCCCC)C(=O)O)C(N)=O)C(=O)O [compound 351, cPEG3aCO-Pen(3)-N(N(Me)2)-T-7MeW-K(Ac)-Pen(3)-TMAPF-2Nal-THP-K(PEG2PEG2gEC14)-N-3Pya-NMeK(PEG2PEG2gEC14)-CONH2] ({Me3N+(CH2)2O(CH2)2O(CH2)2CO}-[Pen]D(NMe2)T[Trp(7-Me)]K(Ac)[Pen]Y(X3)[2Nal][Thp]K([AEEA-AEEA-γGlu-Myristoyl])N[3Pal][NMeK]([AEEA-AEEA-γGlu-Myristoyl])-NH2; disulfide 1-6)
- EPSA: 184 A^2

SMILES: CCCCCCCCCCCCCC(=O)N[C@@H](CCC(=O)NCCOCCOCC(=O)NCCOCCOCC(=O)NCCCC[C@@H]1NC(=O)[C@H](Cc2c[nH]c3c(C)cccc23)NC(=O)[C@H]([C@@H](C)O)NC(=O)[C@H](CC(=O)N(C)C)NC(=O)[C@@H](NC(=O)CCOCCOCC[N+](C)(C)C)C(C)(C)SSC(C)(C)[C@@H](C(=O)N[C@@H](Cc2ccc(OCCCCC[N+](C)(C)C)cc2)C(=O)N[C@@H](Cc2ccc3ccccc3c2)C(=O)NC2(C(=O)N[C@@H](CCCCN(C)C(C)=O)C(=O)N[C@@H](CC(N)=O)C(=O)N[C@@H](Cc3cccnc3)C(=O)N(C)[C@@H](CCCCNC(=O)COCCOCCNC(=O)COCCOCCNC(=O)CC[C@H](NC(=O)CCCCCCCCCCCCC)C(=O)O)C(N)=O)CCOCC2)NC1=O)C(=O)O [compound 355, cPEG3aCO-Pen(3)-N(N(Me)2)-T-7MeW-K(PEG2PEG2gEC14)-Pen(3)-TMAPF-2Nal-THP-K(NMeac)-N-3Pya-NMeK(PEG2PEG2gEC14)-CONH2] ({Me3N+(CH2)2O(CH2)2O(CH2)2CO}-[Pen]D(NMe2)T[Trp(7-Me)]K([AEEA-AEEA-γGlu-Myristoyl])[Pen]Y(X3)[2Nal][Thp][Lys(Me)](Ac)N[3Pal][NMeK]([AEEA-AEEA-γGlu-Myristoyl])-NH2; disulfide 1-6)
- EPSA: 186 A^2

SMILES: CCCCCCCCCCCCCC(=O)N[C@@H](CCC(=O)NCCOCCOCC(=O)NCCOCCOCC(=O)NCCCC[C@@H]1NC(=O)[C@@H](NC(=O)CCOCCOCC[N+](C)(C)C)C(C)(C)SSC(C)(C)[C@@H](C(=O)N[C@@H](Cc2ccc(OCCCCC[N+](C)(C)C)cc2)C(=O)N[C@@H](Cc2ccc3ccccc3c2)C(=O)NC2(C(=O)N[C@@H](CCCCN(C)C(C)=O)C(=O)N[C@@H](CC(N)=O)C(=O)N[C@@H](Cc3cccnc3)C(=O)N(C)[C@@H](CCCCNC(=O)COCCOCCNC(=O)COCCOCCNC(=O)CC[C@H](NC(=O)CCCCCCCCCCCCC)C(=O)O)C(N)=O)CCOCC2)NC(=O)[C@H](CCCCNC(C)=O)NC(=O)[C@H](Cc2c[nH]c3c(C)cccc23)NC(=O)[C@H]([C@@H](C)O)NC1=O)C(=O)O [compound 357, cPEG3aCO-Pen(3)-K(PEG2PEG2gEC14)-T-7MeW-K(Ac)-Pen(3)-TMAPF-2Nal-THP-K(NMeac)-N-3Pya-NMeK(PEG2PEG2gEC14)-CONH2] ({Me3N+(CH2)2O(CH2)2O(CH2)2CO}-[Pen]K([AEEA-AEEA-γGlu-Myristoyl])T[Trp(7-Me)]K(Ac)[Pen]Y(X3)[2Nal][Thp][Lys(Me)](Ac)N[3Pal][NMeK]([AEEA-AEEA-γGlu-Myristoyl])-NH2; disulfide 1-6)
- EPSA: 181 A^2

SMILES: CC(=O)N(C)CCCC[C@@H]1NC(=O)[C@H](Cc2c[nH]c3c(C)cccc23)NC(=O)[C@H]([C@@H](C)O)NC(=O)[C@H](CC(=O)N(C)C)NC(=O)[C@@H](NC(=O)CCOCCOCC[N+](C)(C)C)C(C)(C)SSC(C)(C)[C@@H](C(=O)N[C@@H](Cc2ccc(OCCOCCOCC[N+](C)(C)C)cc2)C(=O)N[C@@H](Cc2ccc3ccccc3c2)C(=O)NC2(C(=O)N[C@@H](CCCCN(C)C(C)=O)C(=O)N[C@@H](CC(N)=O)C(=O)N[C@@H](Cc3cccnc3)C(=O)N(C)CC(N)=O)CCOCC2)NC1=O [compound 363, cPEG3aCO-Pen(3)-N(N(Me)2)-T-7MeW-K(NMeAc)-Pen(3)-APEG3F-2Nal-THP-K(NMeAc)-N-3Pya-Sar-CONH2] ({Me3N+(CH2)2O(CH2)2O(CH2)2CO}-[Pen]D(NMe2)T[Trp(7-Me)][Lys(Me)](Ac)[Pen]Y(CH2CH2OCH2CH2OCH2CH2NMe3+)[2Nal][Thp][Lys(Me)](Ac)N[3Pal][Sar]-NH2; disulfide 1-6)
- EPSA: 155 A^2

SMILES: CC(=O)N[C@@H]1C(=O)N[C@@H](COCCOCC[N+](C)(C)C)C(=O)N[C@@H]([C@@H](C)O)C(=O)N[C@@H](Cc2c[nH]c3c(C)cccc23)C(=O)N[C@@H](CCCCN(C)C(C)=O)C(=O)N[C@H](C(=O)N[C@@H](Cc2ccc(OCCOCCOCC[N+](C)(C)C)cc2)C(=O)N[C@@H](Cc2ccc3ccccc3c2)C(=O)NC2(C(=O)N[C@@H](CCCCN(C)C(C)=O)C(=O)N[C@@H](CC(N)=O)C(=O)N[C@@H](Cc3cccnc3)C(=O)N(C)CC(=O)N(C)C)CCOCC2)C(C)(C)SSC1(C)C [compound 365] (Ac-[Pen]S(CH2CH2OCH2CH2NMe3+)T[Trp(7-Me)][Lys(Me)](Ac)[Pen]Y(CH2CH2OCH2CH2OCH2CH2NMe3+)[2Nal][Thp][Lys(Me)](Ac)N[3Pal][Sar]-NMe2; disulfide 1-6)
- EPSA: 150 A^2

SMILES: CCCCCCCCCCCCCC(=O)N[C@@H](CCC(=O)NCCOCCOCC(=O)NCCOCCOCC(=O)NCCCC[C@@H]1NC(=O)[C@@H](NC(=O)[C@@H](CCCCC[N+](C)(C)C)NC(=O)COCCOCCNC(=O)COCCOCCNC(=O)CC[C@H](NC(=O)CCCCCCCCCCCCC)C(=O)O)C(C)(C)SSC(C)(C)[C@@H](C(=O)N[C@@H](Cc2ccc(OCCCCC[N+](C)(C)C)cc2)C(=O)N[C@@H](Cc2ccc3ccccc3c2)C(=O)NC2(C(=O)N[C@@H](CCCCN(C)C(C)=O)C(=O)N[C@@H](CC(N)=O)C(=O)N[C@@H](Cc3cccnc3)C(=O)N(C)CC(=O)N(C)C)CCOCC2)NC(=O)[C@H](CCCCN(C)C(C)=O)NC(=O)[C@H](Cc2c[nH]c3c(C)cccc23)NC(=O)[C@H]([C@@H](C)O)NC1=O)C(=O)O [compound 374, C14gEPEG2PEG2CO-hk(Me)3-Pen(3)-K(PEG2PEG2gEC14)-T-7MeW-K(NMeAc)-Pen(3)-TMAPF-2Nal-THP-K(NMeAc)-N-3Pya-Sar-CON(Me)2] ({Myristoyl-γGlu-AEEA-AEEA}-[d(hLys(Me3))][Pen]K([AEEA-AEEA-γGlu-Myristoyl])T[Trp(7-Me)][Lys(Me)](Ac)[Pen]Y(X3)[2Nal][Thp][Lys(Me)](Ac)N[3Pal][Sar]-NMe2; disulfide 2-7)
- EPSA: 170 A^2

SMILES: CCCCCCCCCCCCCC(=O)N[C@@H](CCC(=O)NCCOCCOCC(=O)NCCOCCOCC(=O)NCCCC[C@H](NC(=O)C1(NC(=O)[C@H](Cc2ccc3ccccc3c2)NC(=O)[C@H](Cc2ccc(OCCCCC[N+](C)(C)C)cc2)NC(=O)[C@H]2NC(=O)[C@H](CCCCN(C)C(C)=O)NC(=O)[C@H](Cc3c[nH]c4c(C)cccc34)NC(=O)[C@H]([C@@H](C)O)NC(=O)[C@H](CC(=O)N(C)C)NC(=O)[C@@H](NC(=O)[C@@H](CCCCC[N+](C)(C)C)NC(=O)COCCOCCNC(=O)COCCOCCNC(=O)CC[C@H](NC(=O)CCCCCCCCCCCCC)C(=O)O)C(C)(C)SSC2(C)C)CCOCC1)C(=O)N[C@@H](CC(N)=O)C(=O)N[C@@H](Cc1cccnc1)C(=O)N(C)CC(=O)N(C)C)C(=O)O [compound 376, C14gEPEG2PEG2CO-hk(Me)3-Pen(3)-N(N(Me)2)-T-7MeW-K(NMeAc)-Pen(3)-TMAPF-2Nal-THP-K(PEG2PEG2gEC14)-N-3Pya-Sar-CON(Me)2] ({Myristoyl-γGlu-AEEA-AEEA}-[d(hLys(Me3))][Pen]D(NMe2)T[Trp(7-Me)][Lys(Me)](Ac)[Pen]Y(X3)[2Nal][Thp]K([AEEA-AEEA-γGlu-Myristoyl])N[3Pal][Sar]-NMe2; disulfide 2-7)
- EPSA: 176 A^2

SMILES: CCCCCCCCCCCC(=O)N[C@@H](CCC(=O)NCCOCCOCC(=O)NCCOCCOCC(=O)NCCCC[C@@H]1NC(=O)[C@@H](NC(=O)[C@@H](CCCCNC(=O)COCCOCCNC(=O)COCCOCCNC(=O)CC[C@H](NC(=O)CCCCCCCCCCC)C(=O)O)NC(=O)CCOCCOCC[N+](C)(C)C)C(C)(C)SSC(C)(C)[C@@H](C(=O)N[C@@H](Cc2ccc(OCCCCC[N+](C)(C)C)cc2)C(=O)N[C@@H](Cc2ccc3ccccc3c2)C(=O)NC2(C(=O)N[C@@H](CCCCN(C)C(C)=O)C(=O)N[C@@H](CC(N)=O)C(=O)N[C@@H](Cc3cccnc3)C(=O)N(C)CC(=O)N(C)C)CCOCC2)NC(=O)[C@H](CCCCN(C)C(C)=O)NC(=O)[C@H](Cc2c[nH]c3c(C)cccc23)NC(=O)[C@H]([C@@H](C)O)NC1=O)C(=O)O [compound 380, cPEG3aCO-k(PEG2PEG2gEC12)-Pen(3)-K(PEG2PEG2gEC12)-T-7MeW-K(NMeAc)-Pen(3)-TMAPF-2Nal-THP-K(NMeAc)-N-3Pya-Sar-CON(Me)2] ({Me3N+(CH2)2O(CH2)2O(CH2)2CO}-[dK]([AEEA-AEEA-γGlu-Lauroyl])[Pen]K([AEEA-AEEA-γGlu-Lauroyl])T[Trp(7-Me)][Lys(Me)](Ac)[Pen]Y(X3)[2Nal][Thp][Lys(Me)](Ac)N[3Pal][Sar]-NMe2; disulfide 2-7)
- EPSA: 171 A^2

Reference: patent publication US20260022143A1, “Cyclic Peptide Inhibitors of IL-23” (JANSSEN PHARMACEUTICA NV, priority 2022, published 2026)
